Assay results from US20260000076A1, “ANTIMICROBIAL COMBINATIONS” (Clariant International Ltd, priority 2022, published 2026).

Assays:
Format in all cases: cell-based
[1] = tested on: Pseudomonas aeruginosa (B) DSM 1128; test: Minimum inhibitory concentration (MIC), agar dilution; conditions: DSM1128, Caso-Agar, pH 7 (+/−0.2)
Method: (§1) The antimicrobial properties of Velsan Flex, CHA and a combination of both against bacteria, yeast and mold were investigated: For testing the inhibition of bacteria, Velsan Flex, CHA or a combination of both was diluted in 1,2-propanediol and added in different concentrations to liquid Caso-Agar at 50° C. and was buffered to pH 7 (+/−0.2). For testing the inhibition of yeast and mold, Velsan Flex, CHA or a combination of both was diluted in 1,2-propanediol and added in different concentrations to liquid Sabouraud-4% Dextrose-Agar at 50° C. and was buffered to pH 5.6 (+/−0.2). Each of the solutions was poured into a petri-dish and inoculated with the same amount of bacteria, yeast or mold respectively. The minimum inhibitory concentration (MIC) is the lowest concentration of the respective composition that inhibits the growth of the respective microorganism where the next lowest dilution fails to inhibit the growth of said microorganism. The experiments were carried out in scientifically fair conditions so that a proper comparison could be made and conclusions drawn.

[2] = tested on: Serratia marcescens (B) BAM 491; test: as above; conditions: Caso-Agar, pH 7 (+/−0.2)
Method: as §1

[3] = tested on: Candida parapsilosis (Y) DSM 5784; test: as above; conditions: Lodderomyces parapsilosis, DSM5784; Sabouraud-4% Dextrose-Agar, pH 5.6 (+/−0.2)
Method: as §1

[4] = tested on: Aspergillus terreus (M) IMI 45543; test: as above; conditions: Sabouraud-4% Dextrose-Agar, pH 5.6 (+/−0.2)
Method: as §1

[5] = tested on: Klebsiella pneumoniae (B) DSM 786; test: as above; conditions: DSM786, Caso-Agar, pH 7 (+/−0.2)
Method: as §1

[6] = tested on: Candida albicans (Y) DSM 1386; test: as above; conditions: DSM1386, Sabouraud-4% Dextrose-Agar, pH 5.6 (+/−0.2)
Method: as §1

[7] = tested on: Escherichia coli (B) DSM 682; test: as above; conditions: DSM682, Caso-Agar, pH 7 (+/−0.2)
Method: as §1

[8] = tested on: Burkholderia cepacia (B) DSM 7288; test: as above; conditions: DSM7288, Caso-Agar, pH 7 (+/−0.2)
Method: as §1

[9] = tested on: Enterobacter aerogenes (B) NCIMB 10102; test: as above; conditions: Klebsiella aerogenes, NCIMB10102; Caso-Agar, pH 7 (+/−0.2)
Method: as §1

[10] = tested on: Aspergillus brasiliensis (M) DSM 1988; test: as above; conditions: DSM1988, Sabouraud-4% Dextrose-Agar, pH 5.6 (+/−0.2)
Method: as §1

[11] = tested on: Staphylococcus aureus (B) DSM 799; test: as above; conditions: DSM799, Caso-Agar, pH 7 (+/−0.2)
Method: as §1

[12] = tested on: Escherichia coli; test: Challenge test (European Pharmacopoeia 10th Edition, Chapter 5.1.3) in leave-on O/W-cream gel; parameters: key: An A-criteria is related to an excellent protection of a formulation; B-criteria is needed to show sufficient protection but additional risk eliminating measures related to packaging and raw material quality need to be applied; With an F-criteria for any of the organism tested the whole challenge test is failed and the preservation/protection of the formulation is not sufficient; conditions: for Challenge test result E.c.: Example 2A, Velsan Flex 1.35%, CHA 0.15%; for Challenge test result Escherichia coli: Example 2B, CHA 0.1%, Velsan SC 0.9%, Velsan CGE 0.9%
Excerpt: (§2) Following examples show challenge test results that were done according to EUROPEAN PHARMACOPOEIA 10TH EDITION. Chapter 5.1.3. As representative microorganisms the following test germs were used: Pseudomonas aeruginosa (gram-negative organism, short “P.a.”), Staphylococcus aureus (gram-positive organism, short “S.a.”), Escherichia coli (gram negative organism, short “E.c.”), Candida albicans (yeast, short “C.a.”) and Aspergillus brasiliensis (mold, short “A.b.”).
(§3) The A criteria express the recommended efficacy to be achieved. In justified cases where the A criteria cannot be attained, for example for reasons of an increased risk of adverse reactions, the B criteria must be satisfied. An A-criteria is related to an excellent protection of a formulation, B-criteria is needed to show sufficient protection but additional risk eliminating measures related to packaging and raw material quality need to be applied. With an F-criteria for any of the organism tested the whole challenge test is failed and the preservation/protection of the formulation is not sufficient.
(§4) As a reference an unpreserved sample of the respective formulation was tested as well.
(§5) As a test system a difficult to preserve formulation was used: […]
(§6) As a Test System the Following Formulation was Used: […]

[13] = tested on: Staphylococcus aureus; test: as above; parameters: key: An A-criteria is related to an excellent protection of a formulation; B-criteria is needed to show sufficient protection but additional risk eliminating measures related to packaging and raw material quality need to be applied; With an F-criteria for any of the organism tested the whole challenge test is failed and the preservation/protection of the formulation is not sufficient; conditions: for Challenge test result S.a.: Example 2A, Velsan Flex 1.35%, CHA 0.15%; for Challenge test result Staphylococcus aureus: Example 2B, CHA 0.1%, Velsan SC 0.9%, Velsan CGE 0.9%
Excerpt: as §2, §3, §4, §5, §6

[14] = tested on: Pseudomonas aeruginosa; test: as above; parameters: key: An A-criteria is related to an excellent protection of a formulation; B-criteria is needed to show sufficient protection but additional risk eliminating measures related to packaging and raw material quality need to be applied; With an F-criteria for any of the organism tested the whole challenge test is failed and the preservation/protection of the formulation is not sufficient; conditions: for Challenge test result P.a.: Example 2A, Velsan Flex 1.35%, CHA 0.15%; for Challenge test result Pseudomonas aeruginosa: Example 2B, CHA 0.1%, Velsan SC 0.9%, Velsan CGE 0.9%
Excerpt: as §2, §3, §4, §5, §6

[15] = tested on: Aspergillus brasiliensis; test: as above; parameters: key: An A-criteria is related to an excellent protection of a formulation; B-criteria is needed to show sufficient protection but additional risk eliminating measures related to packaging and raw material quality need to be applied; With an F-criteria for any of the organism tested the whole challenge test is failed and the preservation/protection of the formulation is not sufficient; conditions: for Challenge test result A.b.: Example 2A, Velsan Flex 1.35%, CHA 0.15%; for Challenge test result Aspergillus brasiliensis: Example 2B, CHA 0.1%, Velsan SC 0.9%, Velsan CGE 0.9%
Excerpt: as §2, §3, §4, §5, §6

[16] = tested on: Candida albicans; test: as above; parameters: key: An A-criteria is related to an excellent protection of a formulation; B-criteria is needed to show sufficient protection but additional risk eliminating measures related to packaging and raw material quality need to be applied; With an F-criteria for any of the organism tested the whole challenge test is failed and the preservation/protection of the formulation is not sufficient; conditions: for Challenge test result C.a.: Example 2A, Velsan Flex 1.35%, CHA 0.15%; for Challenge test result Candida albicans: Example 2B, CHA 0.1%, Velsan SC 0.9%, Velsan CGE 0.9%
Excerpt: as §2, §3, §4, §5, §6

[17] = tested on: Pseudomonas aeruginosa, Staphylococcus aureus, Escherichia coli, Candida albicans and Aspergillus brasiliensis; test: Challenge test, overall result over all test germs; parameters: key: An A-criteria is related to an excellent protection of a formulation; B-criteria is needed to show sufficient protection but additional risk eliminating measures related to packaging and raw material quality need to be applied; With an F-criteria for any of the organism tested the whole challenge test is failed and the preservation/protection of the formulation is not sufficient; conditions: for Challenge test Overall result: Example 2B, CHA 0.1%, Velsan SC 0.9%, Velsan CGE 0.9%
Excerpt: as §2, §3, §4, §5, §6

Row | Compound | Challenge test result Escherichia coli ([12]; pH 5) | Challenge test result Escherichia coli ([12]; pH 7) | Challenge test result Staphylococcus aureus ([13]; pH 5) | Challenge test result Staphylococcus aureus ([13]; pH 7) | Challenge test result Pseudomonas aeruginosa ([14]; pH 5) | Challenge test result Pseudomonas aeruginosa ([14]; pH 7) | Challenge test result Aspergillus brasiliensis ([15]; pH 5) | Challenge test result Aspergillus brasiliensis ([15]; pH 7) | Challenge test result Candida albicans ([16]; pH 5) | Challenge test result Candida albicans ([16]; pH 7) | Challenge test Overall result ([17]; pH 5) | Challenge test Overall result ([17]; pH 7) | other results
1 | CCCCCCCC(=O)NO [10% CHA solution, Caprylhydroxamic acid] | – | – | – | – | – | – | – | – | – | – | – | – | MIC [1]: 8000 µg/mL; MIC [2]: 4000 µg/mL; MIC [3]: 2000 µg/mL; MIC [4]: 2000 µg/mL; MIC [5]: 3000 µg/mL; MIC [6]: 2000 µg/mL; MIC [7]: 5000 µg/mL; MIC [8]: 3000 µg/mL; MIC [9]: 6000 µg/mL; MIC [10]: 3000 µg/mL; MIC [11]: 8000 µg/mL
2 | CCCCCCCC(=O)NO [CHA, Caprylhydroxamic acid] | B | B | A | F | A | A | B | A | A | A | B | F | Challenge test result E.c. ([12]; pH 5): B; Challenge test result E.c. ([12]; pH 7): B; Challenge test result S.a. ([13]; pH 5): A; Challenge test result S.a. ([13]; pH 7): B; Challenge test result P.a. ([14]; pH 5): A; Challenge test result P.a. ([14]; pH 7): A; Challenge test result A.b. ([15]; pH 5): A; Challenge test result A.b. ([15]; pH 7): A; Challenge test result C.a. ([16]; pH 5): A; Challenge test result C.a. ([16]; pH 7): A; Challenge test, criteria obtained over all test organisms ([17]; Example 2A, pH 5, Velsan Flex 1.35%, CHA 0.15%): B
3 | Sorbitan caprylate [Velsan SC] | A | B | A | A | F | F | F | F | B | B | F | F | –
